Experimental data from patent US20060178311A1, “Control of lactation” (Hannah Research Institute, priority 2003, published 2006).
Ends that are not written are not given here.

Tested on: mammary acini from tissue of lactating mice
Test: Mammary acini culture bioassay: secretion of [3H]leucine-labelled protein
Format: cell-based, mouse
Conditions: 0.01-10.0 μM, singly or in combination, 2 hours
Method: Mammary cells were prepared from tissue of lactating mice by collagenase digestion according to the method of K Hendry, K Simpson, K Nicholas & C Wilde. Journal of Molecular Endocrinology 21: 169-177 (1998). The resultant suspension of mammary acini consisted predominantly of groups of 50-200 cells, and was cultured in medium (Medium 199/Ham's F12: 50:50 v/v) containing insulin (5 μg/ml), hydrocortisone (0.1 μg/ml) and prolactin (1 μg/ml). Culture density was 1.5×10^6 cells/ml, and cells were maintained at 37° C. in an atmosphere of 5% CO2 in air. Protein synthesis and secretion were measured by continuous labelling with L-[4.5-3H]leucine ([…]; 10-20 μCi/ml) for 2 hours in the presence or absence of milk fractions (at concentrations of 0.2-4.0 μg/ml) or synthetic peptides (0.01-10 μM). […] Radiolabel incorporation was measured by precipitation with trichloroacetic acid (final concentration 10% w/v). […]
The amount of radiolabelled protein secreted by acini in the presence of milk extracts or synthetic peptides was expressed as a percentage of that produced by the cells to which no milk fraction or peptide was added. […]
Protein secretion was measured in mammary acini cultures in the presence and absence of synthetic peptides. […]

Row | Sequence | effect of synthetic peptides on protein secretion
1 | AVAVSQEAN (also: C-terminal cysteine) [Peptide B, nine amino acid synthetic peptide] | stimulatory effect
2 | RPKHPIKHQG [Peptide A] | inhibitory action
